From patent publication US20260285853A1, “COMPOUNDS AND METHODS FOR MODULATING SPLICING” (REMIX THERAPEUTICS INC., priority 2023, published 2026)
Where two headings read alike, the source gives them in different places.

What was measured:
Type in all cases: cell-based
[1] = test system: MYB mRNA; test: Splicing RT-qPCR assay (THP), Table 2A
[2] = test system: HTT mRNA; test: Splicing RT-qPCR assay (THP), Table 2A
[3] = test system: SH-SY5Y (human neuroblastoma) cells; test: Cell viability, Cell Titer Glo 2.0 assay; conditions: read-out: Viability SHSY5Y.3 GI50
Outline: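 Steps: serial DMSO dilution of compound, 1:100 dilution into medium, addition to cells (0.1% DMSO final). Incubate 72 h at 37 °C, 5% CO2. Assay with CellTiter-Glo 2.0 reagent.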

[4] = test system: HTT mRNA; test: Gene panel canonical junction qPCR assay, decrease in CJ mRNA, Table 3
Outline: (§1)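 IC50 is the concentration giving 50% response in decrease of the canonical junction transcript, fitted with a 4-parameter logistic equation. Transcripts were quantified by RT-qPCR in A673 or K562 cells after 24 h exposure to compounds dosed up to 10 uM in 3-fold steps.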

[5] = test system: MYB mRNA; test: as above
Outline: as §1

[6] = Table 2A (THP), AJ mRNA increase, read-out: MYB AJ (increase in alternative junction mRNA, AC50)
[7] = Table 2A (THP), CJ mRNA decrease, read-out: MYB CJ (decrease in canonical junction mRNA, IC50)
[8] = Table 2A (THP), AJ mRNA increase, read-out: HTT AJ (increase in alternative junction mRNA, AC50)
[9] = Table 2A (THP), CJ mRNA decrease, read-out: HTT CJ (decrease in canonical junction mRNA, IC50)
[10] = decrease in canonical junction (CJ) mRNA, gene panel qPCR, Table 3
[11] = Table 2A, THP, MYB alternative junction (AJ) mRNA, read-out: MYB AJ (AC50, increase in alternative junction mRNA)
[12] = Table 2A, THP, MYB canonical junction (CJ) mRNA, read-out: MYB CJ (IC50, decrease in canonical junction mRNA)
[13] = Table 2A, THP, HTT alternative junction (AJ) mRNA, read-out: HTT AJ (AC50, increase in alternative junction mRNA)
[14] = Table 2A, THP, HTT canonical junction (CJ) mRNA, read-out: HTT CJ (IC50, decrease in canonical junction mRNA)
[15] = decrease in CJ mRNA levels, canonical junction qPCR, gene panel

IC50 [1, 7]	IC50 [2, 9]	GI50 [3]	IC50 [4, 10]	IC50 [5, 10]	IC50 [1, 12]	IC50 [2, 14]	IC50 [4, 15]	IC50 [5, 15]	Structure (SMILES)	AC50 [1, 6]	AC50 [2, 8]	AC50 [1, 11]	AC50 [2, 13]
> 10 µM	> 10 µM	1 to 10 µM	> 10 µM	> 10 µM	–	–	–	–	COCCNc1cc(N2CCC(NC3CC3)CC2)c2cn(C)nc2c1C(=O)Nc1cc2cn(C)nc2cc1OC [Compound 442, 4-[4-(cyclopropylamino)-1-piperidyl]-6-(2-methoxyethylamino)-N-(6-methoxy-2-methyl-indazol-5-yl)-2-methyl-indazole-7-carboxamide]	> 10 µM	> 10 µM	–	–
> 10 µM	> 10 µM	> 10 µM	> 10 µM	> 10 µM	–	–	–	–	Cc1cn2cc(NC(=O)c3ccc(N4CC(N5CCNCC5)C4)c4cn(C)nc34)nc2c(C)n1 [Compound 500]	> 10 µM	> 10 µM	–	–
–	–	1 to 10 µM	–	–	1 to 10 µM	> 10 µM	> 10 µM	1 to 10 µM	Cc1cn2cc(NC(=O)c3ccc(N4CCC(NC5CC5)C4)c4c3OCO4)cc(F)c2n1 (stereo not shown) [Compound 649, 7-[3-(cyclopropylamino)-pyrrolidin-1-yl]-N-(8-fluoro-2-methyl-imidazo[1,2-a]pyridin-6-yl)-1,3-benzodioxole-4-carboxamide]	–	–	0.1 to 1 µM	> 10 µM
–	–	< 0.1 µM	–	–	< 0.1 µM	< 0.1 µM	< 0.1 µM	< 0.1 µM	COc1cc2c(N3CCC(NC4CC4)CC3)ccc(C(=O)Nc3cc(F)c4nc(C)cn4c3)n2n1 [Compound 689, 4-[4-(cyclopropylamino)-1-piperidyl]-N-(8-fluoro-2-methyl-imidazo[1,2-a]pyridin-6-yl)-2-methoxy-pyrazolo[1,5-a]pyridine-7-carboxamide]	–	–	< 0.1 µM	0.1 to 1 µM
1 to 10 µM	> 10 µM	> 10 µM	> 10 µM	1 to 10 µM	–	–	–	–	CCNC1CCN(c2ccc(C(=O)Nc3cc(C)c(=O)n(C)c3)c3nn(C)cc23)CC1 [Compound 561, N-(1,5-dimethyl-6-oxo-3-pyridyl)-4-[4-(ethylamino)-1-piperidyl]-2-methyl-indazole-7-carboxamide]	> 10 µM	> 10 µM	–	–
< 0.1 µM	< 0.1 µM	< 0.1 µM	< 0.1 µM	< 0.1 µM	–	–	–	–	Cc1cn2cc(NC(=O)c3c(F)cc(N4CCC(NC5CC5)CC4)c4cn(C)nc34)c(Oc3ccccc3)c(F)c2n1 [Compound 377, 4-[4-(cyclopropylamino)-1-piperidyl]-6-fluoro-N-(8-fluoro-2-methyl-7-phenoxyimidazo [1,2-a]pyridin-6-yl)-2-methyl-indazole-7-carboxamide]	< 0.1 µM	< 0.1 µM	–	–
> 10 µM	> 10 µM	> 10 µM	> 10 µM	> 10 µM	–	–	–	–	COc1cc2nn(C)cc2c(Cl)c1NC(=O)c1c(F)cc(N2CCC(NC3CC3)CC2)c2cn(C)nc12 [Compound 445, N-(4-chloro-6-methoxy-2-methyl-indazol-5-yl)-4-[4-(cyclopropylamino)-1-piperidyl]-6-fluoro-2-methyl-indazole-7-carboxamide 2,2,2-trifluoroacetate]	> 10 µM	> 10 µM	–	–
–	–	< 0.1 µM	–	–	< 0.1 µM	0.1 to 1 µM	0.1 to 1 µM	< 0.1 µM	COc1nc2c(C(=O)Nc3cc(OC)c4nn(C)cc4c3)ccc(N3C[C@H](C)N[C@@H](C)C3)c2s1 [Compound 784, 7-((3S,5S)-3,5-dimethylpiperazin-1-yl)-2-methoxy-N-(7-methoxy-2-methyl-2H-indazol-5-yl)benzo[d]thiazole-4-carboxamide]	–	–	< 0.1 µM	0.1 to 1 µM
< 0.1 µM	1 to 10 µM	0.1 to 1 µM	1 to 10 µM	< 0.1 µM	–	–	–	–	COc1nc2nc(C)cn2cc1NC(=O)c1ccc(N2CCC(NC3CC3)CC2)c2cn(C)nc12 [Compound 524, 4-[4-(cyclopropyl-amino)-1-piperidyl]-N-(7-methoxy-2-methylimidazo-[1,2-a]-pyrimidin-6-yl)-2-methyl-indazole-7-carboxamide]	< 0.1 µM	1 to 10 µM	–	–
–	–	1 to 10 µM	–	–	0.1 to 1 µM	> 10 µM	> 10 µM	0.1 to 1 µM	COc1nc2c(C(=O)Nc3cc4cn(C)nc4cc3O)ccc(N3C[C@H](C)N[C@@H](C)C3)c2s1 [Compound 728, 7-[(3S,5S)-3,5-dimethylpiperazin-1-yl]-N-(6-hydroxy-2-methyl-indazol-5-yl)-2-methoxy-1,3-benzothiazole-4-carboxamide]	–	–	0.1 to 1 µM	> 10 µM
> 10 µM	> 10 µM	> 10 µM	> 10 µM	> 10 µM	–	–	–	–	CCNC1CCN(c2cc(F)c(C(=O)Nc3nc4c(C)nc(C)cc4n3C)c3nn(C)cc23)CC1 [Compound 402, 4-(4-(ethylamino)-piperidin-1-yl)-6-fluoro-2-methyl-N-(1,4,6-trimethyl-1H-imidazo[4,5-c]pyridin-2-yl)-2H-indazole-7-carboxamide bis(2,2,2-trifluoroacetate)]	> 10 µM	> 10 µM	–	–
–	–	> 10 µM	–	–	> 10 µM	> 10 µM	> 10 µM	> 10 µM	CCNC1CCN(c2ccc(C(=O)Nc3cn4cc(C)nc(CC(=O)NC)c4n3)c3nn(C)cc23)CC1 [Compound 872, 4-[4-(ethylamino)-1-piperidyl]-2-methyl-N-[6-methyl-8-[2-(methylamino)-2-oxo-ethyl]imidazo[1,2-a]pyrazin-2-yl]indazole-7-carboxamide]	–	–	> 10 µM	> 10 µM
–	–	1 to 10 µM	–	–	1 to 10 µM	> 10 µM	> 10 µM	1 to 10 µM	COc1nc2c(C(=O)Nc3cc4cc(C)nn4cc3OC)ccc(N3C[C@H](C)N[C@@H](C)C3)c2s1 [Compound 787, 7-((3S,5S)-3,5-dimethylpiperazin-1-yl)-2-methoxy-N-(6-methoxy-2-methylpyrazolo[1,5-a]pyridin-5-yl)benzo[d]thiazole-4-carboxamide 2,2,2-trifluoroacetate]	–	–	> 10 µM	> 10 µM
–	–	> 10 µM	–	–	1 to 10 µM	> 10 µM	> 10 µM	1 to 10 µM	CCNC1(C)CCN(c2ccc(C(=O)Nc3cn4cc(C)nc(CNS(C)(=O)=O)c4n3)c3nn(C)cc23)CC1 [Compound 864]	–	–	1 to 10 µM	> 10 µM
–	–	1 to 10 µM	–	–	1 to 10 µM	1 to 10 µM	1 to 10 µM	1 to 10 µM	COc1c(NC(=O)c2c(F)cc(N3CCC(NC4CC4)CC3)c3nc(C)sc23)cn2cc(C)nc2c1F [Compound 663, 4-[4-(cyclopropylamino)-1-piperidyl]-6-fluoro-N-(8-fluoro-7-methoxy-2-methyl-imidazo[1,2-a]-pyridin-6-yl)-2-methyl-1,3-benzothiazole-7-carboxamide]	–	–	1 to 10 µM	1 to 10 µM
> 10 µM	> 10 µM	1 to 10 µM	> 10 µM	> 10 µM	–	–	–	–	Cc1cc2[nH]c(NC(=O)c3ccc(N4CCC(NC5CC5)CC4)c4cn(C)nc34)nc2c(C)n1 [Compound 582, 4-[4-(cyclopropylamino)-1-piperidyl]-N-(4,6-dimethyl-1H-imidazo[4,5-c]pyridin-2-yl)-2-methyl-indazole-7-carboxamide]	> 10 µM	> 10 µM	–	–
–	–	1 to 10 µM	–	–	< 0.1 µM	1 to 10 µM	1 to 10 µM	< 0.1 µM	CCNC1CCN(c2cc(F)c(C(=O)Nc3cn4ccnc4nc3OC)c3nn(C)cc23)CC1 [Compound 692, 4-[4-(ethylamino)-1-piperidyl]-6-fluoro-N-(7-methoxyimidazo[1,2-a]pyrimidin-6-yl)-2-methyl-indazole-7-carboxamide]	–	–	< 0.1 µM	0.1 to 1 µM
–	–	> 10 µM	–	–	> 10 µM	> 10 µM	> 10 µM	> 10 µM	Cc1cn2cc(NC(=O)c3ccc(N4CCNCC4)c4cn(C)nc34)nc2c(CNS(C)(=O)=O)n1 [Compound 811]	–	–	1 to 10 µM	> 10 µM

Structure (SMILES)	IC50 [1, 7]	IC50 [2, 9]	GI50 [3]	IC50 [4, 10]	IC50 [5, 10]	IC50 [1, 12]	IC50 [2, 14]	IC50 [4, 15]	IC50 [5, 15]	AC50 [1, 6]	AC50 [2, 8]	AC50 [1, 11]	AC50 [2, 13]
COc1nc2c(C(=O)Nc3cc(F)c4nn(C)cc4c3)ccc(N3CC4CCC(C3)N4)c2s1 [Compound 801, 7-(3,8-diazabicyclo[3.2.1]octan-3-yl)-N-(7-fluoro-2-methyl-indazol-5-yl)-2-methoxy-1,3-benzothiazole-4-carboxamide]	–	–	0.1 to 1 µM	–	–	< 0.1 µM	1 to 10 µM	1 to 10 µM	< 0.1 µM	–	–	< 0.1 µM	1 to 10 µM
